{"source": "patent US20230321123A1", "about": "“INHIBITORS OF PSEUDOMONAS AERUGINOSA VIRULENCE FACTOR LasB” (Helmholtz-Zentrum Für Infektionsforschung GmbH, priority 2020, published 2023)", "key": {"[1]": {"target": "LasB (Pseudomonas aeruginosa, UniProt Q02RJ6)", "sequence (Q02RJ6 198-498)": "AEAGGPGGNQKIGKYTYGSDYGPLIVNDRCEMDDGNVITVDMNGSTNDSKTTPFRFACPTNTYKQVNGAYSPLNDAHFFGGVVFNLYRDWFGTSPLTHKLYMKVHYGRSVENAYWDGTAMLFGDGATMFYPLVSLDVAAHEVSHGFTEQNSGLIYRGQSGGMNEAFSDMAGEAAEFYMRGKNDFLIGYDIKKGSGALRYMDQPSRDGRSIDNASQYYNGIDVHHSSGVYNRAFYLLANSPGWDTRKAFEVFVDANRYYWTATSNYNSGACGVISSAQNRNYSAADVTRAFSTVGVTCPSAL", "test": "biochemical", "set-up": "species or system P. aeruginosa", "details": "IC50 against LasB"}, "[2]": {"test": "Cytotoxicity A549", "format": "cell-based", "details": "human; A549", "procedure": "(§1) The compounds of examples 1 and 5 were not toxic against the cell lines HepG2, HEK293 and A549 (Table 5). Additionally, the inhibitory effect against P. aeruginosa PA14 was evaluated to exclude an antibacterial effect of the compounds of the present invention. This is important as it was the aim to target virulence and not viability of the bacteria. […]"}, "[3]": {"test": "Cytotoxicity HepG2", "format": "cell-based", "details": "human; HepG2", "procedure": "as §1"}, "[4]": {"target": "T1, MMP-2 (Homo sapiens, UniProt P08253)", "T1 sequence (P08253 110-660)": "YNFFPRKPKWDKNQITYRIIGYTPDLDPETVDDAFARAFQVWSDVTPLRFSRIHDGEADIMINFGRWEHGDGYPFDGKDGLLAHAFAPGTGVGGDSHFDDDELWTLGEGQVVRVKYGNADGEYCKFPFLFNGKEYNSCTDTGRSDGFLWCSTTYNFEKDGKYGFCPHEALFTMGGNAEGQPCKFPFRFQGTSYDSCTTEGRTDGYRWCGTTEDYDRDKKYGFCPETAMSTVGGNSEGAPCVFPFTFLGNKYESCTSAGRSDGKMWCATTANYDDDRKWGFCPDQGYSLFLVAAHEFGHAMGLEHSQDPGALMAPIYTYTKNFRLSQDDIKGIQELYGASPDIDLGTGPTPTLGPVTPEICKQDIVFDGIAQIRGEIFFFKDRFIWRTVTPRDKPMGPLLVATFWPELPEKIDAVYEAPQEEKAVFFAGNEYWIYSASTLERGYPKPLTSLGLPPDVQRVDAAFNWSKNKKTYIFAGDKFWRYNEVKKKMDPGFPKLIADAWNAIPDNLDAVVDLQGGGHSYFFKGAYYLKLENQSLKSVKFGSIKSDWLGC", "test": "Selectivity against human off-targets: MMP-2", "format": "biochemical", "details": "at 100 μM; read-out: Inhibition [%] MMP-2", "description": "(§2) The inhibition of zinc-containing human enzymes is described frequently for LasB inhibitors and poses a serious difficulty in the development of selective compounds. Particularly, the inhibition of matrix metalloproteases (MMPs) should be avoided. To further investigate this issue, three derivatives (the compounds of examples 1, 5 and 8) have been tested for their selectivity against several human off-targets, including six MMPs, ADAM17 (TACE), HDAC-3 and HDAC-8 (Table 4). The selectivity of the compounds is particularly high for MMPs and HDACs, whereas the inhibition of ADAM17 was considerably stronger."}, "[5]": {"target": "T2, MMP-1 (Homo sapiens, UniProt P03956)", "T2 sequence (P03956 100-469)": "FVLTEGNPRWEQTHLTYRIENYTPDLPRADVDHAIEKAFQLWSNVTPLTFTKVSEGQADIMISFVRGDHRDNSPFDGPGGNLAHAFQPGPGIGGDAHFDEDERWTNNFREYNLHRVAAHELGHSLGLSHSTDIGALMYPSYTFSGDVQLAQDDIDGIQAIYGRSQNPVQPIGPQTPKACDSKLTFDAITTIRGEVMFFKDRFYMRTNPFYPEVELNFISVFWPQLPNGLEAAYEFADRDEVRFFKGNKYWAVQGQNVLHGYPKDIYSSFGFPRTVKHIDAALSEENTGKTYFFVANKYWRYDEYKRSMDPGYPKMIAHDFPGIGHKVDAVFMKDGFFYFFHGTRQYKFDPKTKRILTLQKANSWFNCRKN", "test": "Selectivity against human off-targets: MMP-1", "format": "biochemical", "details": "at 100 μM; read-out: Inhibition [%] MMP-1", "description": "as §2"}, "[6]": {"target": "T3, HDAC-8 (Homo sapiens, UniProt Q9BY41)", "T3 sequence (Q9BY41 1-377)": "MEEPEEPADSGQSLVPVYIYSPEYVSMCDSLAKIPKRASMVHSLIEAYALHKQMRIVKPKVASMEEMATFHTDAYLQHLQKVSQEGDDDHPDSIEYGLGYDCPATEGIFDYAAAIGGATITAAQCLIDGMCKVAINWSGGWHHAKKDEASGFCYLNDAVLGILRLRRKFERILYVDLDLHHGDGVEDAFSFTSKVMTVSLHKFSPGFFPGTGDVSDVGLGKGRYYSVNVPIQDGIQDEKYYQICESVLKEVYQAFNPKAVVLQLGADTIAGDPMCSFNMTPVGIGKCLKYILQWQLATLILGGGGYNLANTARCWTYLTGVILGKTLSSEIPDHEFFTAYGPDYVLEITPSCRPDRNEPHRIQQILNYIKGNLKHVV", "test": "Selectivity against human off-targets: HDAC-8", "format": "biochemical", "details": "read-out: IC50 HDAC-8", "description": "as §2"}, "[7]": {"target": "ADAM17 (TACE) (Homo sapiens, UniProt P78536)", "sequence (P78536 215-824)": "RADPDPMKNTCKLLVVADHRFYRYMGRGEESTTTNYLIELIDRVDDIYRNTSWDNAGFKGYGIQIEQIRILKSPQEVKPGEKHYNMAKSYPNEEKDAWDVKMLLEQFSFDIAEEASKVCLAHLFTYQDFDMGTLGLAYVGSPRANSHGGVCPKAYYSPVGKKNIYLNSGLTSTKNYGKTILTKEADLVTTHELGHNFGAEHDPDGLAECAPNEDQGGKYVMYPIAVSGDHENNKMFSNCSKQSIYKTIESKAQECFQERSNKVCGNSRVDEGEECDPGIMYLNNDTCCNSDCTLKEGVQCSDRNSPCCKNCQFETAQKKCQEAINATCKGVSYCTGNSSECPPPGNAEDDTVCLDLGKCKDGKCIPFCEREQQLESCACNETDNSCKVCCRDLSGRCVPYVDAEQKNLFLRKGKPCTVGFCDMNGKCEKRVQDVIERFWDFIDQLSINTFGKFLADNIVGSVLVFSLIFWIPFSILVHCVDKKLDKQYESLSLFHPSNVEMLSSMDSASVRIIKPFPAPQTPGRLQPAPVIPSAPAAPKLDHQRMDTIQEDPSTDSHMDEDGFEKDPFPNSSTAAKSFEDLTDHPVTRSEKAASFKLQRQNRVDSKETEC", "test": "Selectivity against human off-targets: ADAM17 (TACE)", "format": "biochemical", "details": "read-out: IC50 ADAM17 (TACE)"}, "[8]": {"target": "HDAC-3 (Homo sapiens, UniProt O15379)", "sequence (O15379 whole entry)": "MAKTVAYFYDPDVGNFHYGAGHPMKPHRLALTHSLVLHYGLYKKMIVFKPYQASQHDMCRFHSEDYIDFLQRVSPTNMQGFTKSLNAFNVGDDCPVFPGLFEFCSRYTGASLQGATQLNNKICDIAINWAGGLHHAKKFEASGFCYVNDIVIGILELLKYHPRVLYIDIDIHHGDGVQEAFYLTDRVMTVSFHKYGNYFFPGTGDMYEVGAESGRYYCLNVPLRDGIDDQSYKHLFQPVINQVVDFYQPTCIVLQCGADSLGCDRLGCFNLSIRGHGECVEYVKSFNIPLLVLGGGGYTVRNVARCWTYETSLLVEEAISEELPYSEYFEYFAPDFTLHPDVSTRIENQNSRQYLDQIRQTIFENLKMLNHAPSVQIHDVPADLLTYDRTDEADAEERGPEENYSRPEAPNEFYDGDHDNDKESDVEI", "sequence (Q9Y618 395-489 partner limits assumed)": "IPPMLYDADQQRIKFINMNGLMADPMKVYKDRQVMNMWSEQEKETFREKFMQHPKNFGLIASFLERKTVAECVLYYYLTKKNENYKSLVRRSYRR", "test": "Selectivity against human off-targets: HDAC-3", "format": "biochemical", "details": "read-out: IC50 HDAC-3", "description": "as §2"}, "[9]": {"test": "Cytotoxicity HEK293", "format": "cell-based", "details": "human; HEK293", "procedure": "as §1"}, "[10]": {"target": "MMP-3 (Homo sapiens, UniProt P08254)", "sequence (P08254 100-477)": "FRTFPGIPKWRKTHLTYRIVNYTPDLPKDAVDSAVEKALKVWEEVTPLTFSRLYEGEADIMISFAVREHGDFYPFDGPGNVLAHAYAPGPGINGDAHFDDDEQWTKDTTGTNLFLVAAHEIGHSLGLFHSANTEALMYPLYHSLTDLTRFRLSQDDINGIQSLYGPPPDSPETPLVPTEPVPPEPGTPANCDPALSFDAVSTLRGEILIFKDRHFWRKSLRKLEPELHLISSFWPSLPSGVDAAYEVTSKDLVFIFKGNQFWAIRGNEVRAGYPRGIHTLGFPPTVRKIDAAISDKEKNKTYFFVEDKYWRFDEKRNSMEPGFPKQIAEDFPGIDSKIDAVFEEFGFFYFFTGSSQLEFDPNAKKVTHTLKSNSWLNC", "test": "Selectivity against human off-targets: MMP-3", "format": "biochemical", "details": "at 100 μM; read-out: Inhibition [%] MMP-3", "description": "as §2"}, "[11]": {"test_system": "P. aeruginosa PA14", "test": "PA14 inhibition (MIC, antibacterial effect)", "format": "cell-based", "details": "Pseudomonas aeruginosa, PA14; read-out: MIC PA14", "procedure": "as §1"}}}
{"compound": "CC(C)CC(C(=O)NCC(=O)Nc1ccc(Cl)c(Cl)c1)P(=O)(O)O", "note": "(stereo not shown) [Example 163]", "values": [{"measurement": "IC50", "setting": "[1]", "value": "1.756 ± 0.003", "unit": "µM"}]}
{"compound": "CC(C)CC(C(=O)N[C@@H](CC1CC1)C(=O)Nc1ccc(Cl)c(Cl)c1)P(=O)(O)O", "note": "(stereo partly shown) [Example 164]", "values": [{"measurement": "IC50", "setting": "[1]", "value": "0.027 ± 0.001", "unit": "µM"}]}
{"compound": "CC(C)CC(C(=O)N[C@H](C(=O)Nc1ccc(Cl)c(Cl)c1)c1ccccc1)P(=O)(O)O", "note": "(stereo partly shown) [Example 165]", "values": [{"measurement": "IC50", "setting": "[1]", "value": "0.1 ± 0.003", "unit": "µM"}]}
{"compound": "CC(C)CC(C(=O)N1CCC[C@H]1C(=O)Nc1ccc(Cl)c(Cl)c1)P(=O)(O)O", "note": "(stereo partly shown) [Example 166]", "values": [{"measurement": "IC50", "setting": "[1]", "value": "2.54 ± 0.069", "unit": "µM"}]}
{"compound": "CC(C)CC(C(=O)N[C@@H](C(=O)Nc1ccc(Cl)c(Cl)c1)C(C)C)P(=O)(O)O", "note": "(stereo partly shown) [Example 167]", "values": [{"measurement": "IC50", "setting": "[1]", "value": 0.011, "unit": "µM"}]}
{"compound": "CC(C)CC(C(=O)N[C@H](CC(=O)Nc1ccc(Cl)c(Cl)c1)C(C)C)P(=O)(O)O", "note": "(stereo partly shown) [Example 168]", "values": [{"measurement": "IC50", "setting": "[1]", "value": "1.76 ± 0.03", "unit": "µM"}]}
{"compound": "CC(C)CC(C(=O)N[C@@H](CC1CCOCC1)C(=O)Nc1ccc(Cl)c(Cl)c1)P(=O)(O)O", "note": "(stereo partly shown) [Example 169]", "values": [{"measurement": "IC50", "setting": "[1]", "value": "0.378 ± 0.008", "unit": "µM"}]}
{"compound": "Cc1ccc(NC(=O)C(CC(C)C)C(=O)NO)cc1", "note": "(stereo not shown) [Example 173, N^1-hydroxy-2-isobutyl-N^3-(p-tolyl)malonamide]", "values": [{"measurement": "IC50", "setting": "[2]", "value": "> 100", "unit": "µM"}, {"measurement": "IC50", "setting": "[3]", "value": "> 100", "unit": "µM"}, {"measurement": "inhibition at 100 µM", "setting": "[4]", "value": "26 ± 2", "unit": "%"}, {"measurement": "inhibition at 100 µM", "setting": "[5]", "value": "29 ± 3", "unit": "%"}, {"measurement": "IC50", "setting": "[1]", "value": "0.014 ± 0.001", "unit": "µM"}, {"measurement": "IC50", "setting": "[6]", "value": "> 100", "unit": "µM"}, {"measurement": "IC50", "setting": "[7]", "value": "16 ± 2", "unit": "µM"}, {"measurement": "IC50", "setting": "[8]", "value": "> 100", "unit": "µM"}, {"measurement": "IC50", "setting": "[9]", "value": "> 100", "unit": "µM"}, {"measurement": "inhibition at 100 µM", "setting": "[10]", "value": "16 ± 7", "unit": "%"}, {"measurement": "MIC", "setting": "[11]", "value": "> 100", "unit": "µM"}]}
{"compound": "Cc1ccc(NC(=O)C(CC(C)C)n2ccnn2)cc1", "note": "(stereo not shown) [Example 174, 4-Methyl-N-(p-tolyl)-2-(1H-1,2,3-triazol-1-yl)pentanamide]", "values": [{"measurement": "IC50", "setting": "[2]", "value": "> 100", "unit": "µM"}, {"measurement": "IC50", "setting": "[3]", "value": "> 100", "unit": "µM"}, {"measurement": "IC50", "setting": "[1]", "value": "2.8 ± 0.1", "unit": "µM"}, {"measurement": "IC50", "setting": "[6]", "value": "> 100", "unit": "µM"}, {"measurement": "IC50", "setting": "[7]", "value": "> 100", "unit": "µM"}, {"measurement": "IC50", "setting": "[8]", "value": "> 100", "unit": "µM"}, {"measurement": "IC50", "setting": "[9]", "value": "> 100", "unit": "µM"}, {"measurement": "inhibition at 100 µM", "setting": "[10]", "value": "-3 ± 17", "unit": "%"}, {"measurement": "MIC", "setting": "[11]", "value": "> 100", "unit": "µM"}]}
{"compound": "CC(C)CC(C(=O)Nc1ccc(Cl)c(Cl)c1)n1ccnn1", "note": "(stereo not shown) [Example 175]", "values": [{"measurement": "IC50", "setting": "[1]", "value": "4.3 ± 0.2", "unit": "µM"}]}
{"compound": "CC(C)CC(C(=O)Nc1ccc(OCc2ccc(Cl)c(Cl)c2)cc1)n1ccnn1", "note": "(stereo not shown) [Example 176]", "values": [{"measurement": "IC50", "setting": "[1]", "value": 45.6, "unit": "µM"}]}
{"compound": "Cc1ccc(NC(=O)C(CC(C)C)n2nccn2)cc1", "note": "(stereo not shown) [Example 177, 4-Methyl-N-(p-tolyl)-2-(2H-1,2,3-triazol-2-yl)pentanamide]", "values": [{"measurement": "IC50", "setting": "[2]", "value": "> 100", "unit": "µM"}, {"measurement": "IC50", "setting": "[3]", "value": "> 100", "unit": "µM"}, {"measurement": "inhibition at 100 µM", "setting": "[5]", "value": "7 ± 4", "unit": "%"}, {"measurement": "IC50", "setting": "[1]", "value": "5.3 ± 0.2", "unit": "µM"}, {"measurement": "IC50", "setting": "[6]", "value": "> 100", "unit": "µM"}, {"measurement": "IC50", "setting": "[7]", "value": "> 100", "unit": "µM"}, {"measurement": "IC50", "setting": "[8]", "value": "> 100", "unit": "µM"}, {"measurement": "IC50", "setting": "[9]", "value": "> 100", "unit": "µM"}, {"measurement": "MIC", "setting": "[11]", "value": "> 100", "unit": "µM"}]}
{"compound": "CC(C)CC(C(=O)Nc1ccc(Cl)c(Cl)c1)n1nccn1", "note": "(stereo not shown) [Example 178]", "values": [{"measurement": "IC50", "setting": "[1]", "value": "5.5 ± 0.2", "unit": "µM"}]}
{"compound": "CC(C)CC(C(=O)Nc1ccc(OCc2ccc(Cl)c(Cl)c2)cc1)n1nccn1", "note": "(stereo not shown) [Example 179]", "values": [{"measurement": "IC50", "setting": "[1]", "value": 30, "unit": "µM"}]}
